Results published in US20250230193A1, “CYCLIC COMPOUND HAVING SELECTIVE KRAS INHIBITORY EFFECT ON HRAS AND NRAS” (CHUGAI SEIYAKU KABUSHIKI KAISHA, priority 2022, published 2025).

Experiments:
[1] = target: GDP-bound NRAS wild-type protein (Homo sapiens, UniProt P01111); assay: Binding to NRAS by surface plasmon resonance (SPR), Single Cycle Kinetics; details: for NRAS/KRAS (ratio of KD value with respect to NRAS to KD value with respect to KRAS) / NRAS/KRAS (ratio of KD value for NRAS to KD value for KRAS): GDP-bound NRAS wild-type vs GDP-bound KRAS wild-type
[2] = target: GDP-bound HRAS wild-type protein (Homo sapiens, UniProt P01112); assay: Binding to HRAS by surface plasmon resonance (SPR), Single Cycle Kinetics; details: for HRAS/KRAS (ratio of KD value with respect to HRAS to KD value with respect to KRAS) / HRAS/KRAS (ratio of KD value for HRAS to KD value for KRAS): GDP-bound HRAS wild-type vs GDP-bound KRAS wild-type
[3] = SPR, GDP-bound wild-type proteins

Chain of GDP-bound HRAS wild-type protein (P01112 whole entry): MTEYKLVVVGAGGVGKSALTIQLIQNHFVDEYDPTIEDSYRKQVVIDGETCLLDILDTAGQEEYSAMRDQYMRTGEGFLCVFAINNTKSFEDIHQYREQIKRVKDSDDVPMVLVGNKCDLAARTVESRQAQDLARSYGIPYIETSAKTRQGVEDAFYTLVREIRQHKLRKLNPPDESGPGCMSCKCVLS
Chain of GDP-bound NRAS wild-type protein (P01111 whole entry): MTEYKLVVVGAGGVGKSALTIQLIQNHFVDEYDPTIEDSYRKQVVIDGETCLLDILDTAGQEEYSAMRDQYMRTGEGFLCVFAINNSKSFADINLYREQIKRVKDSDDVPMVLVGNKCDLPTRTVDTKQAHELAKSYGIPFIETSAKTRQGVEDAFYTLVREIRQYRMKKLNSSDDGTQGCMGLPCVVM

CCC[C@H]1C(=O)N[C@@H]([C@@H](C)CC)C(=O)N(C)CC(=O)N(C)[C@H]2C/C=C\CCN(C2=O)[C@@H](Cc2ccc(C(F)(F)F)cc2)C(=O)N(C)CC(=O)N[C@@H](CCc2ccc(C(F)(F)F)c(Cl)c2)C(=O)N2C[C@@H](C)C[C@H]2C(=O)NC2(CC(C)(C)C2)C(=O)N(C)[C@@H](C2CCCC2)C(=O)N(C)[C@H](C(=O)N(C)C)CC(=O)N1C [PP2270]
NRAS/KRAS (ratio of KD value with respect to NRAS to KD value with respect to KRAS) ([1]; SPR): B (a compound having 3 or more and less than 10 is denoted as B) | HRAS/KRAS (ratio of KD value with respect to HRAS to KD value with respect to KRAS) ([2]; SPR): B (a compound having 3 or more and less than 10 is denoted as B)

CCC[C@H]1C(=O)N[C@@H]([C@@H](C)CC)C(=O)N(C)CC(=O)N(C)[C@H]2C/C=C\CCN(C2=O)[C@@H](Cc2ccc(C(F)(F)F)cc2)C(=O)N(C)CC(=O)N[C@@H](CCc2cc(F)c(C(F)(F)F)c(F)c2)C(=O)N2C[C@H](OCC)C[C@H]2C(=O)NC2(CC(C)(C)C2)C(=O)N(C)[C@@H](C2CCCC2)C(=O)N(C)[C@H](C(=O)N(C)C)CC(=O)N1C [PP1645]
NRAS/KRAS (ratio of KD value for NRAS to KD value for KRAS) ([1]; KD ratio, SPR): A (a compound having 10 or more and less than 20 is denoted as A) | HRAS/KRAS (ratio of KD value for HRAS to KD value for KRAS) ([2]; KD ratio, SPR): A (a compound having 10 or more and less than 20 is denoted as A)

CCO[C@@H]1C[C@H]2C(=O)NC3(CCC3)C(=O)N(C)[C@@H](C3CCCC3)C(=O)N(C)[C@H](C(=O)N(C)C)CC(=O)N(C)[C@@H](CCC(F)F)C(=O)N[C@@H]([C@@H](C)CC)C(=O)N(C)CC(=O)N(C)[C@H]3C/C=C\CCN(C3=O)[C@@H](Cc3ccc(C(F)(F)F)cc3)C(=O)N(C)CC(=O)N[C@@H](CCc3cc(F)c(C(F)(F)F)c(F)c3)C(=O)N2C1 [PP1121]
NRAS/KRAS (ratio of KD value with respect to NRAS to KD value with respect to KRAS) ([1]; KD ratio, SPR): A (a compound having 10 or more and less than 20 is denoted as A) | HRAS/KRAS (ratio of KD value with respect to HRAS to KD value with respect to KRAS) ([2]; KD ratio, SPR): A (a compound having 10 or more and less than 20 is denoted as A)

CCO[C@@H]1C[C@H]2C(=O)NC3(CCCC3)C(=O)N(C)[C@@H](C3CCCC3)C(=O)N(C)[C@H](C(=O)N(C)C)CC(=O)N(C)[C@@H](C)C(=O)N[C@@H]([C@@H](C)CC)C(=O)N(C)CC(=O)N(C)[C@H]3CCCCN(C3=O)[C@@H](Cc3ccc(C(F)(F)F)cc3)C(=O)N(C)CC(=O)N[C@@H](CCc3cc(F)c(C(F)(F)F)c(F)c3)C(=O)N2C1 [PP0586]
NRAS/KRAS (ratio of KD value with respect to GDP-bound NRAS wild-type protein to KD value with respect to KRAS) ([1]; SPR): C (A compound having a KD ratio of 0.1 or more and less than 3 is denoted as C) | HRAS/KRAS (ratio of KD value with respect to GDP-bound HRAS wild-type protein to KD value with respect to KRAS) ([2]; SPR): B (a compound having 3 or more and less than 10 is denoted as B)

CCO[C@@H]1C[C@H]2C(=O)NC3(CC(F)(F)C3)C(=O)N(C)[C@@H](C3CCCC3)C(=O)N(C)[C@H](CC)CC(=O)N(C)[C@@H](CC)C(=O)N[C@@H]([C@@H](C)CC)C(=O)N(C)CC(=O)N(C)[C@H]3C/C=C\CCN(C3=O)[C@@H](Cc3ccc(C(F)(F)F)cc3)C(=O)N(C)CC(=O)N[C@@H](CCc3cc(F)c(C(F)(F)F)c(F)c3)C(=O)N2C1 [PP1627]
NRAS/KRAS (ratio of KD value for NRAS to KD value for KRAS) ([1]; KD ratio, SPR): A (a compound having 10 or more and less than 20 is denoted as A) | HRAS/KRAS (ratio of KD value for HRAS to KD value for KRAS) ([2]; KD ratio, SPR): A (a compound having 10 or more and less than 20 is denoted as A)

CCC(CC)[C@H]1C(=O)N(C)[C@H](C(=O)N(C)C)CC(=O)N(C)[C@@H](COC)C(=O)N[C@@H]([C@@H](C)CC)C(=O)N(C)CC(=O)N(C)[C@H]2C/C=C\CCN(C2=O)[C@@H](Cc2ccc(C)cc2)C(=O)N(C)CC(=O)N[C@@H](CCc2ccc(C(F)(F)F)c(Cl)c2)C(=O)N2CC3(CC3)C[C@H]2C(=O)NC2(CC(C)(C)C2)C(=O)N1C [PP2967]
NRAS/KRAS (ratio of KD value with respect to GDP-bound NRAS wild-type protein to KD value with respect to KRAS) ([1]; class symbols): AA (a compound having 20 or more is denoted as AA) | HRAS/KRAS (ratio of KD value with respect to GDP-bound HRAS wild-type protein to KD value with respect to KRAS) ([2]; class symbols): A (a compound having 10 or more and less than 20 is denoted as A)

CCC[C@H]1C(=O)N[C@@H]([C@@H](C)CC)C(=O)N(C)CC(=O)N(C)[C@H]2C/C=C\CCN(C2=O)[C@@H](Cc2ccc(C)cc2)C(=O)N(C)CC(=O)N[C@@H](CCc2ccc(C(F)(F)F)c(OC)c2)C(=O)N2C[C@H](OCC)C[C@H]2C(=O)N(C)C2(CCC2)C(=O)N(C)[C@@H](C2CCCC2)C(=O)N(C)[C@H](C(=O)N2CCCC2)CC(=O)N1C [PP3106, (2S,8S,12R,14S,20S,23S,27S,30S,36S,38Z)-20-cyclopentyl-12-ethoxy-8-[2-[3-methoxy-4-(trifluoromethyl)phenyl]ethyl]-4,16,19,22,26,32,35-heptamethyl-30-[(1S)-1-methylpropyl]-27-propyl-2-(p-tolylmethyl)-23-(pyrrolidine-1-carbonyl)spiro[1,4,7,10,16,19,22,26,29,32,35-undecazatricyclo[34.5.1.0^10,14]dotetracont-38-ene-17,1′-cyclobutane]-3,6,9,15,18,21,25,28,31,34,42-undecone]
NRAS/KRAS (ratio of KD value with respect to GDP-bound NRAS wild-type protein to KD value with respect to KRAS) [1, 3]: A (a compound having 10 or more and less than 20 is denoted as A) | HRAS/KRAS (ratio of KD value with respect to GDP-bound HRAS wild-type protein to KD value with respect to KRAS) [2, 3]: A (a compound having 10 or more and less than 20 is denoted as A)
